Data: paper PMC6172451 (Frontiers in Microbiology, 2018)
Read-outs that look alike come from different tables or passages of the source. Bridges are numbered along the chain shown (N, C = ends). Where no end group is shown, it is not given here.

Columns and labels:
[1] = target: chymotrypsin (Bos taurus, UniProt P00766); settings: 360 μL bacteriocin (256 μg/mL) + 40 μL chymotrypsin, final 1 mg/mL; pH 7.8; 25°C; 3 h; read-out activity against L. monocytogenes 54002; triplicate
Protocol: (§1) After 3 h of incubation at appropriate the temperature (Table 3), the activity against indicator strain (L. monocytogenes 54002) was determined. Non-enzymic treatment was used as control test.

[2] = target: papain (Carica papaya, UniProt P00784); settings: 360 μL bacteriocin (256 μg/mL) + 40 μL papain, final 1 mg/mL; pH 6.5; 37°C; 3 h; read-out activity against L. monocytogenes 54002; triplicate
Chain of papain (P00784 134-345): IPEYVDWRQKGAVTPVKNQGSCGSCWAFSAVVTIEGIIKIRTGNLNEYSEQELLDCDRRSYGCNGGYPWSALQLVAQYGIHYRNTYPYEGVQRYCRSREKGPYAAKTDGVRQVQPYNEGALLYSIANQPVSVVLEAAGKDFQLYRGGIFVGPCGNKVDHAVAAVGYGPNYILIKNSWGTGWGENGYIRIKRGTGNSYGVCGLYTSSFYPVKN
Protocol: as §1

[3] = target: pepsin (Sus scrofa, UniProt P00791); settings: 360 μL bacteriocin (256 μg/mL) + 40 μL pepsin, final 1 mg/mL; pH 3; 37°C; 3 h; read-out activity against L. monocytogenes 54002; triplicate
Chain of pepsin (P00791 60-385): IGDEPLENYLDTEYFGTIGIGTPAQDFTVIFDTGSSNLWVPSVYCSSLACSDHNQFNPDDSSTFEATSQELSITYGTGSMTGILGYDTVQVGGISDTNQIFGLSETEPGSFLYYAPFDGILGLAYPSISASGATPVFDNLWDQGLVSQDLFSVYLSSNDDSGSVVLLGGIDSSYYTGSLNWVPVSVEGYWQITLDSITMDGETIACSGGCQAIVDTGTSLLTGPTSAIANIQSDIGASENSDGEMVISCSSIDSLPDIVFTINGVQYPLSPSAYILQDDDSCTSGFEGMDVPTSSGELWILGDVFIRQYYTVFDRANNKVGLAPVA
Protocol: as §1

[4] = target: proteinase K (Parengyodontium album, UniProt P06873); settings: 360 μL bacteriocin (256 μg/mL) + 40 μL proteinase K, final 1 mg/mL; pH 7.5; 37°C; 3 h; read-out activity against L. monocytogenes 54002; triplicate
Chain of proteinase K (P06873 106-384): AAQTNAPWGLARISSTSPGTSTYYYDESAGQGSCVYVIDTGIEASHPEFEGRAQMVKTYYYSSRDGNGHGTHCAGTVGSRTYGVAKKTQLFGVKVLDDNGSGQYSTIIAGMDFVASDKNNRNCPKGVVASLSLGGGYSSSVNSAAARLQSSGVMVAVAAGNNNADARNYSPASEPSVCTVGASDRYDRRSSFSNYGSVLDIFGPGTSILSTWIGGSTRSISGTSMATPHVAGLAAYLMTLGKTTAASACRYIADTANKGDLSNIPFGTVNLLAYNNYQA
Protocol: as §1

[5] = pH stability, remaining antibacterial activity; assay type: physicochemical; settings: 256 μg/mL, 3 h at 37°C, readjusted to pH 6.0
[6] = system: L. monocytogenes 54002; assay: Mode of action: viable cells and optical density; assay type: cell-based, Listeria monocytogenes; settings: 256 μg/mL bacteriocin, about 10^8 CFU/mL in 20 mM sodium phosphate buffer, 37°C, after 3 h
Protocol: Cells were harvested and resuspended in sterile 20 mM sodium phosphate buffer to give 10^8 CFU/mL approximately. Bacteriocin was added for final concentration of 256 μg/mL, while a sample without added bacteriocin was used as control. All samples were incubated for 5 h at 37°C. The optical density (600 nm) and viable cells were monitored every 1 h ([Deraz et al., 2007]).

[7] = system: L. monocytogenes 54002; assay: Membrane permeabilization, SYTOX Green stain; assay type: cell-based, Listeria monocytogenes
Protocol: The fluorescence was detected using RT-PCR instrument combined with 5 μM SYTOX^TM Green Stain (Invitrogen, United States). Cells were resuspended in sterile 20 mM sodium phosphate buffer to give 10^6 CFU/mL approximately. Bacteriocin was added at final concentration of 256 and 128 μg/mL, respectively, while a sample with added sodium phosphate buffer was used as control. Meanwhile, the treated cells were examined using confocal laser scanning microscopy (CLSM; Leica, United States) combined with 5 μM SYTOX^TM Green Dead Cell Stain.

[8] = 1% (V/V) Tween 20, Tween 80, urea, and EDTA at 37°C for 3 h

In the case of “VIADKYYGNGVSCGKHTCTVDWGEAFSCSVSHLANFGHGKC (disulfide 13-18; cysteines drawn unpaired) [plantaricin LPL-1]”, the “Diameter (mm) of inhibition zone after enzyme treatment” value (from here on “Diameter (mm) of inhibition zone”) [1] is reported as 0 mm, the “Diameter (mm) of inhibition zone” value [2] is reported as 0 mm and the “Diameter (mm) of inhibition zone” value [3] is reported as 0 mm. The “Diameter (mm) of inhibition zone” value [4] was 0 mm, the “Remaining antibacterial activity (%)” value ([5]; pH 10, pH set with HCl/NaOH, activity against indicator, Figure 5A) was 25% and the Activity kept ([5]; pH between 2.0 and 7.0) was 90%. For the same sequence, the “Decrease of optical density (600 nm)” value [6] was 0.69 units, the “Decrease of the number of viable cells” value [6] was 2.11 Log10 cfu and the “Amounts of dead cells (CLSM)” value ([7]; 256 μg/mL for 10, 20 and 30 min, 5 μM SYTOX Green Dead Cell Stain, confocal laser scanning microscopy) was “increased gradually”. For the same sequence, the “Fluorescence intensity (SYTOX Green)” value ([7]; 128 and 256 μg/mL, about 10^6 CFU/mL, 5 μM SYTOX Green, RT-PCR instrument, control remained stable) was “increased”, the “Thermal stability in words” value (60, 80, and 100°C for 15 and 30 min) was “remained stable” and the “Remaining antibacterial activity (%)” value (121°C, 20 min, 256 μg/mL, autoclave, Figure 5B) was 58.82%. For the same sequence, the “Stability toward surfactants in words” value [8] was “remained stable”.
